What was measured:
[1] = Dynamic vapor sorption (DVS); format: physicochemical
Protocol: Dynamic Vapor Sorption (DVS) was measured with a Surface Measurement System (SMS) DVS Intrinsic.

[2] = Polymorph screening (solid form by XRPD); format: physicochemical
Protocol: Polymorph screening experiments were performed using a series of crystallization and solid transition methods.
Solid vapor diffusion experiments were conducted using 13 different solvents. Approximately 15 mg of Compound 1 (Type A) was weighed into a 4-mL vial, which was placed into a 20-mL vial with 3 mL of volatile solvent. The 20-mL vial was sealed with a cap and kept at RT for 7 days, allowing solvent vapor to interact with the sample.
Slurry experiments were conducted […] in different solvent systems. About 15 mg of Compound 1 (Type A) was suspended in 0.3 mL of solvent in a 2-mL glass vial. After the suspension was stirred magnetically for 7 days at 4° C., RT or 50° C., the remaining solids were isolated for XRPD analysis (Method A).
Approximately 15 mg of Compound 1 (Type A) was dissolved in an appropriate solvent to obtain a clear solution in a 4-mL vial. This solution was then placed into a 20-mL vial with 3 mL of anti-solvent. The 20-mL vial was sealed with a cap and kept at RT, allowing sufficient time for organic vapor to interact with the solution. After 7 days, solids were isolated for XRPD analysis (Method A).
(§1) Compound 1 (Type A) was weighed into a 3 mL glass vial with the addition of the corresponding solvent or solvent mixture. After being vortexed and ultrasonically shaken, the suspension was filtered, and the filtrate was transferred to a clean 4 mL shell vial. A small amount of Compound 1 (Type A) was added as a seed crystal. Subsequently, the shell vial was sealed with a polyethylene plug with one pinhole and enclosed in a 20 mL glass vial containing 3 mL of the anti-solvent at room temperature for liquid vapor diffusion. The solid forms resulting from the experiments were characterized by XRPD analysis (Method C).
Slow evaporation experiments were performed under 4 conditions. Briefly, about 15 mg of Compound 1 (Type A) was mixed with 1.0-2.5 mL of solvent in a 4-mL glass vial. If the solids were not dissolved completely, suspensions were filtered using a PTFE membrane (pore size of 0.2 μm) and the filtrates were used for the follow-up steps. The visually clear solutions were subjected to evaporation at RT with vials sealed by Parafilm® (3-5 pinholes).
as §1, with “placed” for “enclosed”, “fume hood” for “20 mL glass vial containing 3 mL of the anti-solvent”, “slow evaporation.” for “liquid vapor diffusion.”
A total of 8 anti-solvent addition experiments were carried out. About 15 mg of Compound 1 (Type A) was dissolved in 0.2-4.0 mL of solvent to obtain a clear solution. The solution was magnetically stirred followed by addition of 0.2 mL anti-solvent per step until precipitate appeared or the total amount of anti-solvent reached 15.0 mL. The obtained precipitate was isolated for XRPD analysis (Method A).
A total of 2 reverse anti-solvent addition experiments were carried out. About 15 mg of Compound 1 (type A) was dissolved in 0.2 mL solvent to obtain a clear solution. The solution was added into 2 mL anti-solvent. The obtained precipitate was isolated for XRPD analysis (Method A). Results summarized in Table 16 indicated Type A or a mixture of Type A and amorphous material were generated.
Compound 1 (Type A) was weighed into a 3 mL glass vial with the addition of the corresponding solvent or solvent mixture. After being vortexed and ultrasonically shaken to accelerate dissolution, the suspension was placed in a biochemical incubator and equilibrated at 50° C. for 30 minutes. […]

hygroscopicity ([1]; DVS at RT): hygroscopic
water uptake from 40% RH to 80% RH ([1]; DVS, RT): 1.0%
water uptake up to 40% RH ([1]; DVS, up to 40% RH (ambient condition), RT): 3.4%
form change before and after DVS test ([1]; RT, determined by XRPD): No form change
Solid Form ([2]; liquid vapor diffusion RT 7 days, solvent 1,4-Dioxane, anti-solvent EtOAc): Type A
Solid Form ([2]; liquid vapor diffusion RT 7 days, solvent 1,4-Dioxane, anti-solvent MTBE): Type A
Solid Form ([2]; liquid vapor diffusion RT 7 days, solvent 1,4-Dioxane, anti-solvent MeOH): Type B
Solid Form ([2]; liquid vapor diffusion RT 7 days, solvent 1,4-Dioxane, anti-solvent Toluene): Type A
Solid Form ([2]; liquid vapor diffusion RT 7 days, solvent 1,4-Dioxane, anti-solvent n-Heptane): Type F
Solid Form ([2]; liquid vapor diffusion RT 7 days, solvent Acetone, anti-solvent H2O): Type B
Solid Form ([2]; liquid vapor diffusion RT 7 days, solvent Acetone, anti-solvent IPA): Type A
Solid Form ([2]; liquid vapor diffusion RT 7 days, solvent Acetone, anti-solvent MIBK): Type A
Solid Form ([2]; liquid vapor diffusion RT 7 days, solvent CHCl3, anti-solvent 2-MeTHF): Type A
Solid Form ([2]; liquid vapor diffusion RT 7 days, solvent CHCl3, anti-solvent EtOH): Type A
Solid Form ([2]; liquid vapor diffusion RT 7 days, solvent CHCl3, anti-solvent IPAc): Type A
Solid Form ([2]; liquid vapor diffusion RT 7 days, solvent THF, anti-solvent EtOAc): Type A
Solid Form ([2]; liquid vapor diffusion RT 7 days, solvent THF, anti-solvent MeOH): Type A
Solid Form ([2]; liquid vapor diffusion, seeded, RT, 3.0 mg in 0.5 mL MeOH, anti-solvent MTBE): Type B
Solid Form ([2]; liquid vapor diffusion, seeded, RT, 4.9 mg in 0.5 mL Acetone, anti-solvent MTBE): Type A
Solid Form ([2]; liquid vapor diffusion, seeded, RT, 10.0 mg in 0.5 mL ACN, anti-solvent MTBE): Type B
Solid Form ([2]; liquid vapor diffusion, seeded, RT, 10.1 mg in 0.5 mL ACN, anti-solvent H2O): Type B
Solid Form ([2]; liquid vapor diffusion, seeded, RT, 10.4 mg in 0.5 mL THF, anti-solvent n-pentane): Type D
Solid Form ([2]; liquid vapor diffusion, seeded, RT, 10.8 mg in 0.1 mL DMSO, anti-solvent IPA): Type A
Solid Form ([2]; liquid vapor diffusion, seeded, RT, 10.9 mg in 0.1 mL DMF, anti-solvent IPAc): Type I
Solid Form ([2]; liquid vapor diffusion, seeded, RT, 11.5 mg in 0.5 mL THF, anti-solvent MeOH): Type D
Solid Form ([2]; liquid vapor diffusion, seeded, RT, 12.1 mg in 0.5 mL THF, anti-solvent EtOAc): Type M
Solid Form ([2]; liquid vapor diffusion, seeded, RT, 17.6 mg in 0.5 mL 1,4-dioxane, anti-solvent n-heptane): Type A
Solid Form ([2]; liquid vapor diffusion, seeded, RT, 30.8 mg in 0.2 mL NMP, anti-solvent MTBE): Type J
Solid Form ([2]; liquid vapor diffusion, seeded, RT, 31.9 mg in 0.2 mL DMSO, anti-solvent H2O): Type A
Solid Form ([2]; liquid vapor diffusion, seeded, RT, 32.1 mg in 0.2 mL DMF, anti-solvent Toluene): Type H
Solid Form ([2]; liquid vapor diffusion, seeded, RT, 34.3 mg in 0.3 mL CHCl3, anti-solvent n-pentane): Type A
Solid Form ([2]; slow cooling 50° C. to 5° C., 15.4 mg in 1.5 mL 2-MeTHF): Type K
Solid Form ([2]; slow cooling 50° C. to 5° C., 15.7 mg in 1.5 mL EtOH): Type A
Solid Form ([2]; slow cooling 50° C. to 5° C., 20.3 mg in 1.5 mL EtOAc): Type B
Solid Form ([2]; slow cooling 50° C. to 5° C., 20.5 mg in 1.5 mL MeOH): Type B
Solid Form ([2]; slow cooling 50° C. to 5° C., 39.7 mg in 1.0 mL THF/H2O (1:1 v/v), then kept at 5° C. for 22 days): Type L
Solid Form ([2]; slow cooling 50° C. to 5° C., 40.3 mg in 0.8 mL ACN/H2O (2:1 v/v)): Type B
Solid Form ([2]; slow cooling 50° C. to 5° C., 40.3 mg in 1.0 mL Acetone/n-heptane (3:1 v/v)): Type A
Solid Form ([2]; slow cooling 50° C. to 5° C., 40.4 mg in 1.0 mL 1,4-dioxane/H2O (1:1 v/v)): Type B
Solid Form ([2]; slow cooling 50° C. to 5° C., 40.6 mg in 1.0 mL Acetone/H2O (2:1 v/v)): Type B
Solid Form ([2]; slow evaporation, seeded, RT, 3.0 mg in 1.0 mL MeOH): Type B
Solid Form ([2]; slow evaporation, seeded, RT, 3.2 mg in 0.5 mL EtOAc/2-MeTHF (1:1 v/v)): Type B
Solid Form ([2]; slow evaporation, seeded, RT, 3.2 mg in 1.0 mL EtOAc): Type B
Solid Form ([2]; slow evaporation, seeded, RT, 4.5 mg in 0.5 mL Acetone/EtOH (1:1 v/v)): Type A
Solid Form ([2]; slow evaporation, seeded, RT, 4.6 mg in 0.5 mL Acetone): Type A
Solid Form ([2]; slow evaporation, seeded, RT, 4.7 mg in 0.5 mL Acetone/EtOAc (1:1 v/v)): Type A
Solid Form ([2]; slow evaporation, seeded, RT, 5.0 mg in 0.5 mL ACN/MIBK (1:1 v/v)): Type A
Solid Form ([2]; slow evaporation, seeded, RT, 5.2 mg in 0.5 mL MeOH/Acetone (1:1 v/v)): Type B
Solid Form ([2]; slow evaporation, seeded, RT, 7.3 mg in 0.5 mL DCM/IPAc (1:1 v/v)): Type A
Solid Form ([2]; slow evaporation, seeded, RT, 9.6 mg in 0.5 mL THF/H2O (5:1 v/v)): Type B
Solid Form ([2]; slow evaporation, seeded, RT, 9.8 mg in 0.5 mL ACN/H2O (5:1 v/v)): Type B
Solid Form ([2]; slow evaporation, seeded, RT, 10.0 mg in 0.5 mL ACN): Type B
Solid Form ([2]; slow evaporation, seeded, RT, 10.1 mg in 0.5 mL THF): Type D
Solid Form ([2]; slow evaporation, seeded, RT, 10.7 mg in 0.5 mL THF/EtOH (1:1 v/v)): Type A
Solid Form ([2]; slow evaporation, seeded, RT, 10.8 mg in 0.5 mL DCM/n-heptane (1:1 v/v)): Type A
Solid Form ([2]; slow evaporation, seeded, RT, 11.1 mg in 0.5 mL ACN/EtOAc (1:1 v/v)): Type A
Solid Form ([2]; slow evaporation, seeded, RT, 13.0 mg in 0.5 mL Acetone/H2O (5:1 v/v)): Type B
Solid Form ([2]; slow evaporation, seeded, RT, 13.8 mg in 0.5 mL ACN/EtOH (1:1 v/v)): Type A
Solid Form ([2]; slow evaporation, seeded, RT, 14.4 mg in 0.5 mL ACN/2-MeTHF (1:1 v/v)): Type A
Solid Form ([2]; slow evaporation, seeded, RT, 17.3 mg in 0.5 mL ACN/IPA (4:1 v/v)): Type A
Solid Form ([2]; slow evaporation, seeded, RT, 22.7 mg in 0.5 mL CHCl3/IPA (1:1 v/v)): Type A
Solid Form ([2]; slow evaporation, seeded, RT, 22.9 mg in 0.5 mL CHCl3/toluene (1:1 v/v)): Type A
Solid Form ([2]; slow evaporation, seeded, RT, 27.7 mg in 0.5 mL ACN/n-heptane (10:1 v/v)): Type B
Solid Form ([2]; slow evaporation, seeded, RT, 32.9 mg in 0.5 mL 1,4-dioxane/H2O (4:1 v/v)): Gel
Solid Form ([2]; slurry of Type A 7 days, 1,4-Dioxane/MeOH (v/v, 1:1), 50° C.): Type A
Solid Form ([2]; slurry of Type A 7 days, 1,4-Dioxane/Toluene (v/v, 1:1), 50° C.): Type A
Solid Form ([2]; slurry of Type A 7 days, 1,4-Dioxane, 50° C.): Type A
Solid Form ([2]; slurry of Type A 7 days, 1,4-Dioxane, RT): Type C
Solid Form ([2]; slurry of Type A 7 days, 2-MeTHF, 50° C.): Type A
Solid Form ([2]; slurry of Type A 7 days, ACN/IPA (v/v, 1:3), 50° C.): Type A
Solid Form ([2]; slurry of Type A 7 days, ACN, 4° C.): Type A
Solid Form ([2]; slurry of Type A 7 days, Acetone/H2O (v/v, 1:3), 50° C.): Type B
Solid Form ([2]; slurry of Type A 7 days, Acetone/IPAc (v/v, 1:3), 50° C.): Type A
Solid Form ([2]; slurry of Type A 7 days, Acetone, RT): Type A
Solid Form ([2]; slurry of Type A 7 days, CHCl3/EtOAc (v/v, 1:3), 50° C.): Type A
Solid Form ([2]; slurry of Type A 7 days, CHCl3/MeOH (v/v, 1:3), 50° C.): Type A
Solid Form ([2]; slurry of Type A 7 days, CHCl3/Toluene (1/3), 4° C.): Type B + Type A
Solid Form ([2]; slurry of Type A 7 days, DCM/EtOH (v/v, 1:3), 50° C.): Type A
Solid Form ([2]; slurry of Type A 7 days, DCM/n-Heptane (1/3), 4° C.): Type A
Solid Form ([2]; slurry of Type A 7 days, DMSO/H2O (1/9), RT): Type B
Solid Form ([2]; slurry of Type A 7 days, EtOAc, 50° C.): Type A
Solid Form ([2]; slurry of Type A 7 days, EtOH, 50° C.): Type A
Solid Form ([2]; slurry of Type A 7 days, H2O, 50° C.): Type B
Solid Form ([2]; slurry of Type A 7 days, IPA, 50° C.): Type A
Solid Form ([2]; slurry of Type A 7 days, IPAc, 50° C.): Type A
Solid Form ([2]; slurry of Type A 7 days, MIBK, 50° C.): Type A
Solid Form ([2]; slurry of Type A 7 days, MTBE, 50° C.): Type A
Solid Form ([2]; slurry of Type A 7 days, MeOH, 50° C.): Type B
Solid Form ([2]; slurry of Type A 7 days, THF, 4° C.): Type D
Solid Form ([2]; slurry of Type A 7 days, THF, 50° C.): Type A
Solid Form ([2]; slurry of Type A 7 days, Toluene, 50° C.): Type A
Solid Form ([2]; slurry of Type A 7 days, n-Heptane, 50° C.): Type A
Structure (SMILES): O=C([C@H](CO)c1ccccc1)N1CC2=C(C1)CN(S(=O)(=O)c1cnc3c(c1)OCCO3)C2 [Type A, (S)-1-(5-[2H,3H-[1,4]dioxino[2,3-b]pyridine-7-sulfonyl]-1H,2H,3H,4H,5H,6H-pyrrolo[3,4-c]pyrrol-2-yl)-3-hydroxy-2-phenylpropan-1-one]
